How the values were obtained:
[1] = system: whole blood from healthy human donors; assay: Cytokine induction in vitro in whole blood from healthy human donors (Example 2.5); assay type: cell-based; conditions: blood diluted 1:1 in RPMI, 18 to 20 hours, averages for all 20 donors, FIG. 9; for Type I IFN induction in human whole blood (active concentration): HEK-Blue™ IFN-α/β-KO-STING reporter; for IL-1 induction in human whole blood (active concentration): HEK-Blue™ IL-1R reporter; for TNF-α induction in human whole blood (active concentration): HEK-Blue™ TNF-α reporter
Excerpt: HEK-Blue™ cell lines: The following three cell lines also were used for biological evaluation of the CDNs. • 1. HEK-Blue™ IFN-α/β-KO-STING: These cells are derived from HEK-Blue™ IFN-α/β cells (InvivoGen catalog code: hkb-ifnab), in which the STING gene has been inactivated. HEK-Blue™ IFN-α/β cells enable detection of bioactive human type I IFNs through monitoring of activation of the ISGF3 pathway. These cells were generated by stable transfection of HEK293 cells with the human STAT2 and IRF9 genes to obtain a fully active type I IFN signaling pathway. The other genes of the pathway (IFNAR1, IFNAR2, JAK1, TyK2 and STAT1) are naturally expressed in sufficient amounts. The cells were further transfected with a SEAP reporter gene under control of an IFN-α/β-inducible ISG54 promoter. Stimulation of HEK-Blue™ IFN-α/β cells with human IFN-α or IFN-β activates the JAK/STAT/ISGF3 pathway and subsequently induces production of SEAP. Production of Type I interferons in these cells is measured using QUANTI-Blue™. • 2. HEK-Blue™ IL-1R (InvivoGen catalog code: hkb-illr): HEK-Blue™ IL-1R cells were designed to detect bioactive human and murine IL-1β through monitoring of activation of the NF-κB and AP-1 pathways. Additionally, these cells detect bioactive IL-1β from cynomolgus monkeys, dogs and rats. In fact, HEK-Blue™ IL-1R cells can detect IL-la and IL-1(3, as these cytokines bind to the same receptor, IL-1R. These cells derive from HEK-Blue™ IL-1β cells (InvivoGen catalog code: hkb-illb), in which the TNF-α response is blocked. Therefore, HEK-Blue™ IL-1R cells respond specifically to IL-1. These cells endogenously express the human IL-1 receptor and were stably transfected with the murine IL-1 receptor, rendering them very sensitive to both human and murine IL-1(3. HEK-Blue™ IL-1R cells express a SEAP reporter gene under control of an IFN-(3 minimal promoter fused to five NF-κB and five AP-1 binding sites. Binding of IL-1β to IL-1R on the surface of HEK-Blue™ IL-1R cells triggers a signaling cascade that leads to the activation of NF-κB and subsequent production of SEAP. Production of IL-1β in these cells is measured using QUANTI-Blue™. • 3. HEK-Blue™ TNF-II-[…](InvivoGen catalog code: hkb-tnfdmyd): HEK-Blue™ TNF-α cells enable detection of bioactive human and murine TNF-α through monitoring of activation of the NF-κB pathway. These cells were generated by stable transfection of HEK293 cells with a SEAP reporter gene under control of an IFN-(3 minimal promoter fused to five NF-κB and five AP-1 binding sites. They were further rendered unresponsive to IL-1β by knocking out the MyD88 gene. Stimulation of HEK-Blue™ TNF-α cells with TNF-α triggers activation of the NF-κB-inducible promoter and production of SEAP. Production of TNF-α in these cells is measured using QUANTI-Blue™. Quantification of IL-6 in Experiments
Acquisition and Handling of Human Blood Samples
Twenty human blood samples were acquired from heathy donors at the San Diego Blood Bank (3636 Gateway Center Ave, Suite 100; San Diego, Calif. 92102; USA; www.sandiegobloodbank.org). Briefly, the samples were collected by venipuncture into sodium heparin (green-cap) tubes at the time of donation, and then stored at 4° C. until pick-up. The tubes were picked up on the day of collection, stored on ice during transport, and subsequently tested with the CDNs on the same day.
Each blood sample was diluted (1:1) in RPMI medium and aliquoted into 96-well plates (180-[…]L wells) containing each CDN at six different concentrations (30 µg/mL, 10 µg/mL, 3 µg/mL, 1 µg/mL, 0.3 µg/mL and 0.1 µg/mL). The plates were incubated at 37° C. in a CO2 incubator for 18 to 20 hours. The next day the supernatants were collected, transferred into the corresponding wells of round-bottom 96-well plates, and stored at −80° C. […]

[2] = system: snake-venom phosphodiesterase (SVPD); assay: Resistance to enzymatic cleavage by SVPD, monitored by UHPLC-MS (Example 2.6); conditions: 37° C., FIGS. 10A, 10C; for Resistance to enzymatic degradation by SVPD, compared with corresponding non-fluorinated ribo-CDN analog: 7 μg CDN, 160 μg SVPD in PBS with 0.6 mM MgCl2, 0 to 120 hours; for Resistance to SVPD, compared with corresponding analog containing two phosphodiester linkages: phosphorothioate vs phosphodiester fluorinated deoxyribo-CDNs
Procedure: (§1) • Enzymes used: snake-venom phosphodiesterase (SVPD) and nuclease P1 (NP1) • Subject CDNs tested: CL603, CL632, CL614 and CL656 • Reference (non-fluorinated) CDNs tested: c-GAMP and c-AIMP • Property evaluated: resistance to enzymatic cleavage
(§2) We incubated each CDN with either of two enzymes known to cleave nucleic acids and CDNs, and then looked for signs of degradation by UHPLC over time, by measuring the decrease in the area of the peak corresponding to the CDN (identified according to MS). Specifically, we assessed the resistance of the CDNs to snake-venom phosphodiesterase (SVPD) and nuclease P1 (NP1), both of which can degrade CDNs by cleaving the phosphodiester nucleotide linkages. The experiment was performed as follows:
(§3) Each CDN (7 […]g) was separately incubated with a solution (21 µL) of either enzyme (either 160 µg SVPD in PBS buffer containing 0.6 mM MgCl2; or 2.5 mU NP1 in 30 mM acetate buffer containing 2 mM ZnCl2 [pH 5.3]), or with water (as control) in a water bath at 37° C. Aliquots of the reaction mixture were collected at various time points from 0 to 120 hours, heated at 100° C. for 2 min, and then frozen at […] Finally, 10 µL of each aliquot was injected directly into the HPLC (Agilent 1290 Infinity UHPLC equipped with a UV-detector; column: Waters Acquity UPLC CSH C18 1.7 µm [2.1 mm×50 mm; flow rate: 0.3 mL/min]; detection at 254 nm; autosampler temperature: 25° C.) for analysis. The following gradient was used: 100% A (10 mM aq. ammonium formate) for 1 minute; then 100% A to 100% B (acetonitrile) over 5 minutes.
(§4) The percentage of absorbance of CDNs at each time point was calculated by dividing the peak area corresponding to the parent CDN, by the sum of all the peak areas in the chromatogram, and then multiplying by 100.

[3] = literature example (Li, 2014); cited from earlier work
nuclease P1 (NP1) = biological target: T1, nuclease P1 (NP1) (Penicillium citrinum, UniProt P24289); assay: Resistance to enzymatic cleavage by NP1, monitored by UHPLC-MS (Example 2.6); conditions: 7 μg CDN; 2.5 mU NP1 in 30 mM acetate buffer with 2 mM ZnCl2, pH 5.3; 37° C.; 0 to 120 hours; FIGS. 10B, 10D
T1 sequence (P24289 1-270): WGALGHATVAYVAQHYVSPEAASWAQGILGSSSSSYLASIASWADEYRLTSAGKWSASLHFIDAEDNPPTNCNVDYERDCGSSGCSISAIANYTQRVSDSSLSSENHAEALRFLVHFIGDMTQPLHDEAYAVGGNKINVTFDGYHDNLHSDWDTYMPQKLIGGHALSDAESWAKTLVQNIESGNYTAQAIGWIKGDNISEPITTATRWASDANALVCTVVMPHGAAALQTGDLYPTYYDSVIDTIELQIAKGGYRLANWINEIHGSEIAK
Procedure: as §1, §2, §3, §4

mice = assay: Cytokine induction in CDN-treated mice (Example 2.3); assay type: in vivo, mouse; conditions: Swiss mice; 10 mg/kg i.v.; 4 h post-injection; RAW ISG54 reporter cells; FIG. 6
Excerpt: Interleukin-6 was quantified using an enzyme-linked immunoassay (ELISA) according to the manufacturer's instructions (R&D Systems).
• Species evaluated: mouse • Cyclic dinucleotides tested: CL604, CL606, CL609, CL611 and CL614 • Reference compound: c-AIMP and saline • Cytokines evaluated: IFN-α/β (using RAW ISG54 reporter cells) and IL-6 (by ELISA).
Twenty-one mice (Swiss; female; mean age: 8 weeks) were divided into seven groups of three: one group served as control (saline) and the other six groups were each treated with a cyclic dinucleotide (either c-AIMP, CL604, CL606, CL609, CL611 or CL614). On Day −7, blood samples for basal cytokine levels were collected from all mice and stored at −20° C. until analysis. On Day 1, the mice were treated with either 200 μL of physiologic serum (containing 0.9% NaCl) or 200 μL of a solution of a cyclic dinucleotide (dose: 10 mg/kg) in physiologic serum (containing 0.9% NaCl), by intravenous (i.v.) injection. Blood samples were collected from the mice at 4 h post-injection, and then stored at −20° C. until analysis. Cytokine induction was measured in the sera from the blood samples.

In the case of `Nc1ncnc2c1ncn2C1OC2COP(=O)(S)O[C@@H]3C(COP(=O)(S)O[C@H]2[C@H]1F)OC(n1cnc2c(=O)[nH]cnc21)[C@@H]3F` (mixture of isomers) [CL656], the “Type I IFN induction in human whole blood (active concentration)” value (shortened to “Type I IFN induction”) [1] is reported as “more active than is its corresponding non-fluorinated analog”, the “IL-1 induction in human whole blood (active concentration)” value (from here on “IL-1 induction in human whole blood”) [1] is reported as “more active than is its corresponding non-fluorinated analog” and the “TNF-α induction in human whole blood (active concentration)” value (from here on “TNF-α induction in human whole blood”) [1] is reported as “more active than is its corresponding non-fluorinated analog”. For the same compound, the “Resistance to enzymatic degradation by SVPD, compared with corresponding non-fluorinated ribo-CDN analog” value [2] was “more resistant to enzymatic degradation” and the “Resistance to SVPD, compared with corresponding analog containing two phosphodiester linkages” value [2] was “more resistant to SVPD”.
In the case of `Nc1nc2c(ncn2[C@@H]2O[C@@H]3COP(O)(=S)O[C@H]4[C@@H](O)[C@H](n5cnc6c(N)ncnc65)O[C@@H]4COP(=O)(S)O[C@@H]2[C@@H]3O)c(=O)[nH]1` (stereo partly drawn) [(2′,3′) c-GAMP(S)], the “Resistance to enzymatic hydrolysis compared with phosphodiester analog” value [3] is given as “more resistant to enzymatic hydrolysis”.
With `Nc1nc2c(ncn2C2OC3COP(=O)(O)O[C@@H]4C(COP(=O)(O)O[C@H]3[C@H]2F)OC(n2cnc3c(N)ncnc32)[C@@H]4F)c(=O)[nH]1` (some centres unmarked) [CL603] the “Type I IFN induction” value [1] was “more active than is its corresponding non-fluorinated analog”, the “IL-1 induction in human whole blood” value [1] was “more active than is its corresponding non-fluorinated analog” and the “TNF-α induction in human whole blood” value [1] was “more active than is its corresponding non-fluorinated analog”. For the same compound, the “Resistance to enzymatic degradation by SVPD, compared with corresponding non-fluorinated ribo-CDN analog” value [2] was “more resistant to enzymatic degradation” and the “Resistance to enzymatic degradation by NP1, compared with corresponding non-fluorinated ribo-CDN analog” value (nuclease P1 (NP1)) was “more resistant to enzymatic degradation”.
With `Nc1ncnc2c1ncn2C1OC2COP(=O)(O)O[C@H]3C(n4cnc5c(=O)[nH]cnc54)OC(COP(=O)(O)O[C@@H]1[C@@H]2O)[C@H]3O` (some centres unmarked) [CL611] the “Type I interferon (IFN-α/β) induction in sera from mice” value (mice) was “except CL611 strongly induced Type I interferons”.
With `Nc1ncnc2c1ncn2C1OC2COP(=O)(O)O[C@@H]3C(COP(=O)(O)O[C@H]2[C@H]1F)OC(n1cnc2c(=O)[nH]cnc21)[C@@H]3F` (some centres unmarked) [CL614] the “Type I IFN induction” value [1] was “more active than is its corresponding non-fluorinated analog”, the “IL-1 induction in human whole blood” value [1] was “more active than is its corresponding non-fluorinated analog” and the “TNF-α induction in human whole blood” value [1] was “more active than is its corresponding non-fluorinated analog”. The “Resistance to enzymatic degradation by SVPD, compared with corresponding non-fluorinated ribo-CDN analog” value [2] was “more resistant to enzymatic degradation” and the “Resistance to enzymatic degradation by NP1, compared with corresponding non-fluorinated ribo-CDN analog” value (nuclease P1 (NP1)) was “more resistant to enzymatic degradation”.
In the case of `Nc1nc2c(ncn2C2OC3COP(=O)(S)O[C@@H]4C(COP(=O)(S)O[C@H]3[C@H]2F)OC(n2cnc3c(N)ncnc32)[C@@H]4F)c(=O)[nH]1` (some centres unmarked) [CL632], the “Resistance to enzymatic degradation by SVPD, compared with corresponding non-fluorinated ribo-CDN analog” value [2] is reported as “more resistant to enzymatic degradation”, the “Resistance to SVPD, compared with corresponding analog containing two phosphodiester linkages” value [2] is reported as “more resistant to SVPD” and the “Resistance to enzymatic degradation by NP1, compared with corresponding non-fluorinated ribo-CDN analog” value (nuclease P1 (NP1)) is reported as “more resistant to enzymatic degradation”.
